Where two headings read alike, the source gives them in different places.
How the values were obtained:
Assay type in all cases: cell-based
SPL [1] = molecular target: T1, SPL (Mus musculus, UniProt Q8R0X7); assay: Measurement of SPL activity in lysate of cells treated with compound
T1 construct: IT-79MTNC3 cells which are a mouse thymic epithelial cell line can be appropriately selected using the expression of an SPL protein as an index; host or cells: IT-79MTNC3 (mouse thymic epithelial cell line)
T1 sequence (Q8R0X7 1-568): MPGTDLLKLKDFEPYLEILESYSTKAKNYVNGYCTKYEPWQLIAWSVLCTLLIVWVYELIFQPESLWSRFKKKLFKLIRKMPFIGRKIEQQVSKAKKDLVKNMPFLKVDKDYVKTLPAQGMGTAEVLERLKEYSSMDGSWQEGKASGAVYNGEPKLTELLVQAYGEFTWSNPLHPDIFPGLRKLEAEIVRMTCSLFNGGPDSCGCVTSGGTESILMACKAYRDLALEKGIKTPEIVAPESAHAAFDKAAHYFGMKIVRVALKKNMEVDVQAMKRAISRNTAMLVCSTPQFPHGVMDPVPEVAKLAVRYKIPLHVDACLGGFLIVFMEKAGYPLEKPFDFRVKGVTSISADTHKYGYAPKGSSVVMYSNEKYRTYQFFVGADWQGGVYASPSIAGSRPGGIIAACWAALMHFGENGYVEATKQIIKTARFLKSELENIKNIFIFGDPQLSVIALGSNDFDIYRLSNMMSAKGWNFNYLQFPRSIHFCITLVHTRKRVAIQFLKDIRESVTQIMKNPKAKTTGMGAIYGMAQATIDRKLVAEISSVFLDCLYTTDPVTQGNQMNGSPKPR
Method: In order to prepare a lysate of cells treated with a test compound, IT-79MTNC3 cells were suspended in DMEM-10% FBS containing 25 μM fumonisin B1 and seeded in a 12-well plate for cell culture at 1×10^5 cells/well, and then cultured at 37° C. in the presence of 5% CO2 for a whole day and night. On the next day, the culture supernatant was first removed, and then, 500 μL of DMEM-0.1% BSA (or VB6-free DMEM-0.1% BSA) containing a serially diluted test compound was added thereto, and the cells were cultured at 37° C. in the presence of 5% CO2 for 4.5 hours. Thereafter, 55 μL of DMEM-0.1% BSA (or VB6-free DMEM-0.1% BSA) containing 10 μM dhSph was added thereto, and the cells were cultured at 37° C. in the presence of 5% CO2 for 30 minutes. After washing the IT-79MTNC3 cells with PBS, the cells were collected. Then, 150 μL of a homogenization buffer was added to the cells, and the resulting mixture was subjected to an ultrasonic treatment using a sonicator, followed by centrifugation at 4° C. for 3 minutes at 1,000 g, and the resulting supernatant was used as a cell lysate. The quantitative determination of protein by the Bradford method was carried out using a portion of the cell lysate. […]
In order to measure the SPL activity in the lysate prepared using the cells treated with the compound, the cell lysate was diluted to 1 mg protein/mL with a homogenization buffer, and the diluted solution was mixed with ^3H-dhS1P (3.4 nM) as a substrate and a reaction buffer (a 0.1 M potassium phosphate solution (pH-7.4), 25 mM NaF, 5 mM Na3VO4, 1 mM EDTA, 1 mM DTT, 0.1% Triton X-100, 2 μM cold dhS1P) to make the final volume 50 μL. […] A 30 μL portion of the resulting organic layer was taken and mixed with 5 mL of the liquid scintillator, and the radioactivity thereof was measured using a liquid scintillation counter. The obtained count was assumed to reflect the amount of degradation products by the SPL reaction, and the SPL activity of each sample was calculated as a ratio of that in the group without treatment with the compound.

SPL [2] = molecular target: T1, SPL; assay: SPA using known SPL inhibitor: accumulation of 3H-dhS1P in IT-79MTNC3 cells; conditions: for EC50: read-out: EC50, activity of inhibiting the SPL activity
Method: A mouse thymic epithelial cell line (IT-79MTNC3 cells, The Cell Bank Division of Japan Health Sciences Foundation) was cultured using Dulbecco's Modified Eagle Medium (DMEM, Invitrogen) containing 10% fetal bovine serum (FBS) (DMEM-10% FBS) at 37° C. in the presence of 5% CO2. When the cells were used for transfection or assay, the cells were detached with 0.05% trypsin-EDTA (Invitrogen), followed by centrifugation, thereby collecting the cells. When the cells were treated with a compound or used for incorporating ^3H-dhSph, DMEM containing 0.1% bovine serum albumin (BSA, Sigma) (DMEM-0.1% BSA) or vitamin B6 group-depleted Dulbecco's Modified Eagle Medium (VB6-free DMEM, Cell Science & Technology Institute, Inc.) containing 0.1% BSA (VB6-free DMEM-0.1% BSA) was used.
In order to evaluate the activity of a test compound for accumulating ^3H-dhS1P, IT-79MTNC3 cells were suspended in DMEM-10% FBS containing 25 μM fumonisin B1, and seeded in a 96-well plate for cell culture at 1×10^4 cells/well, and then cultured at 37° C. in the presence of 5% CO2 for a whole day and night. On the next day, the culture supernatant was first removed, and then, 40 μL of DMEM-0.1% BSA (or VB6-free DMEM-0.1% BSA) containing a serially diluted test compound was added thereto, and the cells were cultured at 37° C. in the presence of 5% CO2 for 4.5 hours. Thereafter, 10 μL of DMEM-0.1% BSA (or VB6-free DMEM-0.1% BSA) containing 83 nM ^3H-dhSph and 5 μM dhSph was added thereto, and the cells were cultured at 37° C. in the presence of 5% CO2 for 30 minutes. After the culture supernatant was removed, 70 μL of a cell lysis buffer was added thereto, and the resulting mixture was left at room temperature for 2 hours. A 50 μL portion of the resulting cell lysate was mixed with SPA beads (obtained by being diluted to 8 times such that glycerol was contained at 50% in the final concentration), which were previously dispensed into a white 96-well plate at 20 μL/well. Then, the plate was covered with a transparent plate seal and left overnight at room temperature under shading. On the next day, the radioactivity thereof was measured using a microplate scintillation counter. In the case of using VB6-free DMEM, before the culture medium containing the test compound was added, washing was carried out twice with 150 μL of VB6-free DMEM-0.1% BSA, thereby preventing the carryover of the vitamin B6 group contained in DMEM used when seeding.

SPL [3] = molecular target: T1, SPL; assay: Measurement of intracellular S1P by LC-MS in IT-79MTNC3 cells
Method: In order to evaluate the activity of a test compound for accumulating S1P, IT-79MTNC3 cells were suspended in DMEM-10% FBS containing 25 μM fumonisin B1, and seeded in a 24-well plate for cell culture at 5×10^4 cells/well, and then cultured at 37° C. in the presence of 5% CO2 for a whole day and night. On the next day, the culture supernatant was first removed, and then, 450 μL of DMEM-0.1% BSA (or VB6-free DMEM-0.1% BSA) containing a serially diluted test compound was added thereto, and the cells were cultured at 37° C. in the presence of 5% CO2 for 4.5 hours. Thereafter, 50 μL of DMEM-0.1% BSA (or VB6-free DMEM-0.1% BSA) containing 10 μM Sph (Enzo Life Sciences) was added thereto, and the cells were cultured at 37° C. in the presence of 5% CO2 for 30 minutes. After the culture supernatant was removed, the cells were washed with PBS and collected. Then, 150 μL of a mixed solution of acetonitrile and 1 M hydrochloric acid (acetonitrile:hydrochloric acid=4:1) was added to the cells, and the resulting mixture was subjected to an ultrasonic treatment using a sonicator. The amount of S1P was measured by LC-MS by Mitsubishi Chemical Medience Corporation. In the case of using VB6-free DMEM, before the culture medium containing the test compound was added, washing was carried out twice with 600 μL of VB6-free DMEM-0.1% BSA, thereby preventing the carryover of the vitamin B6 group contained in DMEM used when seeding.

[4] = in the presence of 100 nM pyridoxine

Compound	activity on SPL activity in the lysate (SPL [1]; VB6-free DMEM, FIG. 5(3))	activity on SPL activity in the lysate (SPL [1]; normal conditions (DMEM), FIG. 4(3))	effective concentration in SPA as compared with normal DMEM (SPL [2]; VB6-free DMEM, FIG. 5(1))	EC50 (SPL [2]; [4])	EC50 (SPL [2]; in the presence of 1 μM pyridoxine)	EC50 (SPL [2]; normal DMEM (containing about 20 μM pyridoxine))	response by SPA (accumulation of 3H-dhS1P) (SPL [2]; normal conditions (DMEM), FIG. 4(1))	activity on amount of intracellular S1P (SPL [3]; VB6-free DMEM, FIG. 5(2))	activity on amount of intracellular S1P (SPL [3]; normal conditions (DMEM), FIG. 4(2))	activity in SPA (accumulation of 3H-dhS1P) (SPL [2]; VB6-free DMEM, FIG. 5(1))	inhibitory activity against the SPL activity (SPL [2]; in the presence 1 μM pyridoxine)	inhibitory activity against the SPL activity (SPL [2]; normal DMEM)
Cc1ncc(CO)c(C)c1O [DOP, 4-deoxypyridoxine]	exhibited their activity in substantially the same concentration range	detected in substantially the same concentration range	significantly decreased	0.027 µM	1.6 µM	46 µM	concentration-dependent response	exhibited their activity in substantially the same concentration range	detected in substantially the same concentration range			
CC(=O)c1nc(C(O)C(O)C(O)CO)c[nH]1 (stereo not drawn) [THI, 2-acetyl-4-tetrahydroxybutylimidazole]	exhibited their activity in substantially the same concentration range			~250 µM				exhibited their activity in substantially the same concentration range		concentration-dependent activity was detected	could not be observed	could not be observed
